Target: T1, hTAS1R1 H71L/rTAS1R3 (Homo sapiens, UniProt Q7RTX1, H71L)
T1 construct: expressed in transfected cells; host or cells: HEK293T/17 (ATCC CRL-11268)
T1 sequence (Q7RTX1 21-841 H71L): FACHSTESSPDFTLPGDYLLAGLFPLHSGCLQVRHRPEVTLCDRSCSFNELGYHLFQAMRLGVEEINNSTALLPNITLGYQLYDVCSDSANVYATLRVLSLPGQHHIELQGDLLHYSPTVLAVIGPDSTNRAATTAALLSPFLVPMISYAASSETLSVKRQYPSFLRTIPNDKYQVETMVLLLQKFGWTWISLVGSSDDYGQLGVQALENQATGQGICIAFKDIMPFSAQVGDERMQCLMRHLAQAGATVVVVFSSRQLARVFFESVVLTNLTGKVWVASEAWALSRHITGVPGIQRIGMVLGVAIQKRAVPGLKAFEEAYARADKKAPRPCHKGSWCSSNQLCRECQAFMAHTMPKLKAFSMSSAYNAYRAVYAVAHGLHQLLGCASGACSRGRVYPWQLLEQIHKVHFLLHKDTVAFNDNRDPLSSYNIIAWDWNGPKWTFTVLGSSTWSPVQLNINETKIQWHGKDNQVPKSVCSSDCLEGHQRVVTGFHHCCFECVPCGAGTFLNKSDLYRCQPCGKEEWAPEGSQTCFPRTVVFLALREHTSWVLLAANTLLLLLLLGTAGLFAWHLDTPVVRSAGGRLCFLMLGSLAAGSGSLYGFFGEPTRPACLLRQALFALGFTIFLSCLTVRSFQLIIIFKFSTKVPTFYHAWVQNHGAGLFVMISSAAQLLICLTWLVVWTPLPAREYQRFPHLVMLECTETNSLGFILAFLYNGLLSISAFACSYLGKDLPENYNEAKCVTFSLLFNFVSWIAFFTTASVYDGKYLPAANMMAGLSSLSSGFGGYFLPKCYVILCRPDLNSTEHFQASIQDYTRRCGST
T1 sequence (Q923K1 21-858 partner): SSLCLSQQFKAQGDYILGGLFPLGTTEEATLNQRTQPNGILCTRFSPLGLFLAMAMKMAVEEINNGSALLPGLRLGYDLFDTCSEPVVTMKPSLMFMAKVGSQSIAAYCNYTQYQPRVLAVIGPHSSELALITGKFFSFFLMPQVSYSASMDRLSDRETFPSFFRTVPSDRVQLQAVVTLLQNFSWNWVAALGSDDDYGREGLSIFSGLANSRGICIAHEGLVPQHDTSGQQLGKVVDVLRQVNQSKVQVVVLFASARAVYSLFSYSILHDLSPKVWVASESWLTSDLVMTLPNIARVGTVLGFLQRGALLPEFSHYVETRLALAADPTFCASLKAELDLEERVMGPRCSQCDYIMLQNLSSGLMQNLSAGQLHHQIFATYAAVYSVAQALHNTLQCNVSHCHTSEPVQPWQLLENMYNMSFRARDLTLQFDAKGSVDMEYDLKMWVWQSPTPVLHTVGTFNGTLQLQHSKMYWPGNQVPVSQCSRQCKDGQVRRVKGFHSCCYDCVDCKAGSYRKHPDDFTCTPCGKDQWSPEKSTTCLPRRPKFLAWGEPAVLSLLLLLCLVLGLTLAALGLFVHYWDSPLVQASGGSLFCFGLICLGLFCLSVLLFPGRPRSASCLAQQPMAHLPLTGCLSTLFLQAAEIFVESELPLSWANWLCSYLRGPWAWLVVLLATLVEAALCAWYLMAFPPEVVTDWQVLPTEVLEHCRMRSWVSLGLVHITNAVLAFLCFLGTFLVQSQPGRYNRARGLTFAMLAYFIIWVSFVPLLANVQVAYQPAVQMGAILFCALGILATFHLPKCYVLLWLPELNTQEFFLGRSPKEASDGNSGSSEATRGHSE
Experiment: Calcium assay, hTAS1R1 mutant co-expressed with rTAS1R3
Format: cell-based, rat

SMILES: N[C@@H](CCC(=O)N[C@@H](CS)C(=O)NCC(=O)O)C(=O)O [GSH, γ-L-glutamyl-L-cysteinyl-glycine]
- EC50: 2270 ± 123 µM
- response to the agonist alone, vs WT (H71L): significantly increased the initial amplitude
- Max ∆F/F0 (H71L, GSH): 1.24 ± 0.0
- R1 = mutant EC50/WT EC50 (H71L, GSH): 0.9

Reference: publication PMC12615753, “Glutathione as a taste modulator: molecular mechanisms of interaction with umami and sweet taste receptors” (Food Chemistry: Molecular Sciences, 2025)
